Literature values as cited in patent publication US6696084B2 (RTP Pharma Inc., priority 2000, dated 2004).

How the values were obtained:
[1] = oral administration with or without food

SMILES	solubility in acetonitrile	solubility in ethanol	solubility in methanol	solubility in water	solubility in acetone	solubility in chloroform (chloroform)	solubility in ether (ether)	solubility in isopropanol (isopropanol)	food effect on absorption / uptake [1]
CC[C@H](C)C(=O)O[C@H]1C[C@@H](C)C=C2C=C[C@H](C)[C@H](CC[C@@H]3C[C@@H](O)CC(=O)O3)[C@H]21 [Lovastatin]	sparingly soluble	sparingly soluble	sparingly soluble	insoluble	–	–	–	–	–
CC[C@H](C)C(=O)O[C@H]1C[C@H](O)C=C2C=C[C@H](C)[C@H](CC[C@@H](O)C[C@@H](O)CC(=O)O)[C@H]21 [Pravastatin]	practically insoluble	–	–	–	practically insoluble	practically insoluble	practically insoluble	slightly soluble	–
COCc1c(C(C)C)nc(C(C)C)c(/C=C/[C@@H](O)C[C@@H](O)CC(=O)O)c1-c1ccc(F)cc1 [Cerivastatin]	–	soluble	soluble	soluble	very slightly soluble	–	–	–	not sensitive to a food effect
CC(C)n1c(/C=C/C(O)CC(O)CC(=O)O)c(-c2ccc(F)cc2)c2ccccc21 (stereo not drawn) [Fluvastatin]	–	soluble	soluble	soluble	–	–	–	–	reduces the rate but not the extent of absorption
